One experiment concerns the target D(2) dopamine receptor (Homo sapiens, UniProt P14416). Nature of the experiment: Affinity of Compounds for Dopamine D2 Receptors.
Experiment [1] deals with 5-hydroxytryptamine receptor 2A (Homo sapiens, UniProt P28223). Nature of the experiment: Affinity of Compounds for 5-HT2A Receptors.
Method: The affinity of the compounds of the present disclosure for the 5-HT2A receptors was determined by the method of radioligand competition experiment. In the first step, a cell membrane component containing specific 5-HT2A receptor was prepared. A 10 cm dish was used for transfection with 10 ng of the 5-HT2A receptor and 40 μL of PEI. After 48 hours, the 10 cm dish was taken out from the cell incubator and the cultured cells had expressed the 5-HT2A receptor. A vacuum pump was used to suck off the culture medium, 3 mL of lysis buffer was added to each culture dish, and the cells were placed in a 4° C. cold room for 10 minutes. After the cells were detached, the cells were transferred to a 15 mL centrifuge tube and centrifuged at 1500 rpm for 5 minutes at 4° C., and the supernatant was discarded. The cell pellet was transferred to a tissue homogenizer, and 3 mL of lysis buffer was added and fully ground until the cells were broken. Then, cell suspension was equally aliquoted into several EP tubes, centrifuged at 12000 rpm for 5 minutes at 4° C., and the supernatant was discarded. The precipitate was the cell membrane component containing the 5-HT2A receptor. […] First, a standard binding buffer was added to the cell membrane component containing the 5-HT2A receptor, and the cell membrane was disrupted and resuspended with an electric tissue homogenizer. […]

Molecules are shown by their SMILES.

Sequence of 5-hydroxytryptamine receptor 2A (P28223 whole entry): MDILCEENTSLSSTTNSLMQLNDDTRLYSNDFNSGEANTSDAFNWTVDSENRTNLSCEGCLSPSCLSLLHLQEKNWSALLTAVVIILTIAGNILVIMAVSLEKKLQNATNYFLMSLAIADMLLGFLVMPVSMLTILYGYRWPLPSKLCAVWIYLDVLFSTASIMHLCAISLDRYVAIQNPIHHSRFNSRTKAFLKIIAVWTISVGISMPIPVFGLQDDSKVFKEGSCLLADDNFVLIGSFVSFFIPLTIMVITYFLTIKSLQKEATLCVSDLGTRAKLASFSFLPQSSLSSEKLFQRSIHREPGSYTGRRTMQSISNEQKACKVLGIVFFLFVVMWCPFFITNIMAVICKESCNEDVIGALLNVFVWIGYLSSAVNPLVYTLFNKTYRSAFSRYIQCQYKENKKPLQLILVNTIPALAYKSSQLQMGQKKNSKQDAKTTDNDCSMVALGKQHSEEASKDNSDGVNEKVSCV
Sequence of D(2) dopamine receptor (P14416 whole entry): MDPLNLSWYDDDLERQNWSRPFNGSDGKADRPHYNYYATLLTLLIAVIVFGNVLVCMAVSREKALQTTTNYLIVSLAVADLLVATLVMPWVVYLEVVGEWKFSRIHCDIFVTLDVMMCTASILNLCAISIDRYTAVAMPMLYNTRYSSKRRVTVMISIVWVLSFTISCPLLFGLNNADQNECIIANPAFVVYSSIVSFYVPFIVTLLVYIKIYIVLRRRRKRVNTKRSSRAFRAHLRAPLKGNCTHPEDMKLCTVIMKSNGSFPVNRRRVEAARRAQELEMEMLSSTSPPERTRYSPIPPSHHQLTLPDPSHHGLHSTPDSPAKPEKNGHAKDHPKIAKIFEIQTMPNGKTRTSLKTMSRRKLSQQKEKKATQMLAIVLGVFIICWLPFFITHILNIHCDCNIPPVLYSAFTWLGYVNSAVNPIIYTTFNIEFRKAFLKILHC
Method for D(2) dopamine receptor: The affinity of the compounds of the present disclosure for the dopamine D2 receptors was determined by the method of radioligand competition experiment. In the first step, a cell membrane component containing specific dopamine D2 receptors was prepared. A 10 cm culture dish was used for transfection with 10 ng of the dopamine D2 receptors and 40 μL of polyethylenimine (PEI hereafter). After 48 hours, the 10 cm culture dish was taken out from the cell culture incubator and the cultured cells had expressed the dopamine D2 receptors. A vacuum pump was used to suck off the culture medium, 3 mL of lysis buffer was added to each culture dish, and the cells were placed in a 4° C. cold room for 10 minutes. After the cells were detached, the cells were transferred to a 15 mL centrifuge tube and centrifuged at 1500 rpm for 5 minutes at 4° C., and the supernatant was discarded. The cell pellet was transferred to a tissue homogenizer, and 3 mL of lysis buffer was added and fully ground until the cells were broken. Then, cell suspension was equally aliquoted into several EP tubes, centrifuged at 12000 rpm for 5 minutes at 4° C., and the supernatant was discarded. The precipitate was the cell membrane component containing the dopamine D2 receptors. […]

As for `c1ccc(-c2cccc(CN3CCN4c5cccc6scc(c56)CC4C3)c2)cc1` (configuration not stated) [US20240383913, Compound I-7], the Ki (usually a measure of affinity in units of concentration, obtained from inhibition or displacement) at D(2) dopamine receptor is 310 nM; in experiment [1], 910 nM.

The values are drawn from BindingDB's records for patent US20240383913 (Chinese Academy of Sciences, 2024).
